From patent US20240190876A1, “Tricyclic Urea Compounds As JAK2 V617F Inhibitors” (Incyte Corporation, priority 2022, published 2024)
pIC50: −log10 of the molar value.

Columns and labels:
Type in all cases: biochemical
KIT [1] = assay: KIT Enzymatic Assay; details: ratio KIT IC50 / JH2 V617F binding IC50
Method: (§1) The kinase assays were carried out at room temperature in assay buffer (HEPES 50 mM, pH 7.0, NaN3 0.02%, BSA 0.01%, Orthovanadate 0.1 mM, DTT 1 mM, MgCl2 10 mM) in a final volume of 10 μL. Testing compounds were prepared by serial dilution in DMSO and transferred to the plate wells by ECHO liquid handler (Labcyte) with 0.5% DMSO in the final assay. […]. Reactions were initiated by the addition of 5 μL ATP in assay buffer. The final 10 μL kinase reaction consists of 0.12 nM KIT, 1 mM ATP, 500 nM TK Substrate-biotin and SEB reagent 62.5 nM in assay buffer. […] The plates were then sealed and centrifuged at 1800 rpm for 2 minutes. After 60 minutes incubation at room temperature, the product activity was determined by measuring the fluorescence at 620 nm and 665 nm on Pherastar microplate reader (BMG Labtech). A ratio is calculated (665/620 nm) for each well. Wells with DMSO only were served as the positive controls and wells containing no ATP were used as negative controls. IC50 determination was performed by fitting the curve of percent control activity versus the log of the compound concentration using the GraphPad Prism 7.0 software.

KIT [2] = target: KIT (Homo sapiens, UniProt P10721); assay: KIT Enzymatic Assay; details: HTRF kinase assay, 1 mM ATP
Chain of KIT (Homo sapiens, UniProt P10721) (P10721 26-976, species assumed): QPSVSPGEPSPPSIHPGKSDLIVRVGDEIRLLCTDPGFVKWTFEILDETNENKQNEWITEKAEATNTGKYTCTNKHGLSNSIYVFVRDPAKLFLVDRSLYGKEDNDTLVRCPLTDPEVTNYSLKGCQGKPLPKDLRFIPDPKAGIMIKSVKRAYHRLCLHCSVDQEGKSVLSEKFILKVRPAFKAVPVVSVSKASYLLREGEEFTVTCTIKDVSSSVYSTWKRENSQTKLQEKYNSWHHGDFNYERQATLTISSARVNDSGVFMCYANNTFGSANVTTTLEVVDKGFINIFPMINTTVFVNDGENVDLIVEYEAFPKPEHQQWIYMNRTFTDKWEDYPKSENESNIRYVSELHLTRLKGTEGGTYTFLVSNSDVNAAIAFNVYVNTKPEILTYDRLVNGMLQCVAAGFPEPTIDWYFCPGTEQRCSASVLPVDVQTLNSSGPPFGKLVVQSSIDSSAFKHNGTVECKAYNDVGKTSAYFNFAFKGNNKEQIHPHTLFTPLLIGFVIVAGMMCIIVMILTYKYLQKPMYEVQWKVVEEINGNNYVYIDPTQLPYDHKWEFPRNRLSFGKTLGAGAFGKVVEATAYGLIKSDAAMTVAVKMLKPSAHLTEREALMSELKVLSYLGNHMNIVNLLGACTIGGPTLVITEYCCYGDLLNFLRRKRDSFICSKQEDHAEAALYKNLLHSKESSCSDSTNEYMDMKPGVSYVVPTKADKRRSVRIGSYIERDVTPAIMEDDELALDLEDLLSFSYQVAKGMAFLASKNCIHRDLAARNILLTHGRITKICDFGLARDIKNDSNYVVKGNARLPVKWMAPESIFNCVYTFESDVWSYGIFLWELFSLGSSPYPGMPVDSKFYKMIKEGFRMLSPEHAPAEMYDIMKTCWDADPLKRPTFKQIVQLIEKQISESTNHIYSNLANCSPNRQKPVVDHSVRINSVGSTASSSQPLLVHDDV
Method: as §1

FLT3 [3] = assay: FLT3 Enzymatic Assay; details: ratio FLT3 IC50 / JH2 V617F binding IC50
Method: as §1, with “0.011” for “0.12”, “FLT3,” for “KIT,”

FLT3 [4] = target: T1, FLT3 (Homo sapiens, UniProt P36888); assay: FLT3 Enzymatic Assay; details: HTRF kinase assay, 1 mM ATP
T1 sequence (P36888 27-993): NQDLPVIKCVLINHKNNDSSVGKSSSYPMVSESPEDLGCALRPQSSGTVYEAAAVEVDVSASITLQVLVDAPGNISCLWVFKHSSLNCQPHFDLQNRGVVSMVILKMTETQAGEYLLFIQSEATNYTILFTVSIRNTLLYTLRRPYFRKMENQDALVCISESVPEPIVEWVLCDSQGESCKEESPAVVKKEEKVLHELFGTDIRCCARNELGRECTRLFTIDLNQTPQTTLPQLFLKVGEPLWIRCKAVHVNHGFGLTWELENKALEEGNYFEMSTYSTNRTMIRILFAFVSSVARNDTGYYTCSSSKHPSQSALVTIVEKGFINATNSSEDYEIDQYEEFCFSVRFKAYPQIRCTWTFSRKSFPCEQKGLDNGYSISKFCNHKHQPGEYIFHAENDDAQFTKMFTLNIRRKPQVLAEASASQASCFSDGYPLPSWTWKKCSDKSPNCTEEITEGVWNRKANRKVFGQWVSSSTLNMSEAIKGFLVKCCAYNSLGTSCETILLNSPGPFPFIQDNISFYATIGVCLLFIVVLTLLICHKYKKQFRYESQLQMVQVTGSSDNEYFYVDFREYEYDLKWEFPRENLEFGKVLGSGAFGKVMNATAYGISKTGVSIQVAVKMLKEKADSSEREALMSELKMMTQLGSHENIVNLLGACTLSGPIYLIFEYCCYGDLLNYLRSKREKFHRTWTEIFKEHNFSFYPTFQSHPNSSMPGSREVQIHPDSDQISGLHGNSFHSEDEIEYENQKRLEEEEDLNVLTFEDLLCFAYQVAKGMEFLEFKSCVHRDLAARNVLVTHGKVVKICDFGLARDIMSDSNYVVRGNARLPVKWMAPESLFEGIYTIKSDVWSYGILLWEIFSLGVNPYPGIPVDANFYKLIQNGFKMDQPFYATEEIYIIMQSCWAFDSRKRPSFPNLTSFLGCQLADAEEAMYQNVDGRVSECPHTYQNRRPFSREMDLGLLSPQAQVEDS
Method: as §1, with “0.011” for “0.12”, “FLT3,” for “KIT,”

| Structure (SMILES) | Selectivity KIT/JH2 V617F (KIT [1]) | pIC50 (KIT [2]) | Selectivity FLT3/JH2 V617F (FLT3 [3]) | pIC50 (FLT3 [4]) |
| --- | --- | --- | --- | --- |
| [2H]C([2H])([2H])n1ncc2cc(-c3c(-c4cn(CC)nc4F)[nH]c4ncc5c(c34)n([C@H]3CC[C@@](C)(NC(=O)C4CC4)CC3)c(=O)n5C)ccc21 [Example 5, N-((1s,4s)-4-(7-(1-Ethyl-3-fluoro-1H-pyrazol-4-yl)-3-methyl-8-(1-(methyl-d3)-1H-indazol-5-yl)-2-oxo-3,6-dihydroimidazo[4,5-d]pyrrolo[2,3-b]pyridin-1(2H)-yl)-1-methylcyclohexyl)cyclopropanecarboxamide] | **** (**** refers to selectivity of >1750-fold to ≤5000-fold) | 5.90 to 6.60 | ** (** refers to selectivity of >500-fold to ≤1500-fold) | 6.60 to 7.60 |
| [2H]C([2H])([2H])n1cc(-c2[nH]c3ncc4c(c3c2-c2ccc3c(cnn3C([2H])([2H])[2H])c2)n([C@H]2CC[C@@](C)(NC(=O)C3CC3)CC2)c(=O)n4C)c(F)n1 [Example 4, N-((1s,4s)-4-(7-(3-fluoro-1-(methyl-d3)-1H-pyrazol-4-yl)-3-methyl-8-(1-(methyl-d3)-1H-indazol-5-yl)-2-oxo-3,6-dihydroimidazo[4,5-d]pyrrolo[2,3-b]pyridin-1(2H)-yl)-1-methylcyclohexyl)cyclopropanecarboxamide] | **** (**** refers to selectivity of >1750-fold to ≤5000-fold) | 5.90 to 6.60 | *** (*** refers to selectivity of >1500-fold to ≤1750-fold) | 5.90 to 6.60 |
| [2H]C([2H])([2H])n1cc(-c2[nH]c3ncc4c(c3c2-c2ccc(OC)cc2)n([C@H]2CC[C@@](C)(NC(=O)C3CC3)CC2)c(=O)n4C)c(F)n1 [Example 3, N-((1s,4s)-4-(7-(3-fluoro-1-(methyl-d3)-1H-pyrazol-4-yl)-8-(4-methoxyphenyl)-3-methyl-2-oxo-3,6-dihydroimidazo[4,5-d]pyrrolo[2,3-b]pyridin-1(2H)-yl)-1-methylcyclohexyl)cyclopropanecarboxamide] | **** (**** refers to selectivity of >1750-fold to ≤5000-fold) | 5.90 to 6.60 | ** (** refers to selectivity of >500-fold to ≤1500-fold) | 5.90 to 6.60 |
| [2H]C([2H])([2H])n1ncc2cc(-c3c(-c4cn(C)nc4OC)[nH]c4ncc5c(c34)n([C@H]3CC[C@@](C)(NC(=O)C4CC4)CC3)c(=O)n5C)ccc21 [Example 2, N-((1s,4s)-4-(7-(3-Methoxy-1-methyl-1H-pyrazol-4-yl)-3-methyl-8-(1-(methyl-d3)-1H-indazol-5-yl)-2-oxo-3,6-dihydroimidazo[4,5-d]pyrrolo[2,3-b]pyridin-1(2H)-yl)-1-methylcyclohexyl)cyclopropanecarboxamide] | ****** (****** refers to selectivity of >12500-fold) | < 5.60 | ****** (****** refers to selectivity of >12500-fold) | 5.60 to 5.90 |
| COc1ccc(-c2c(-c3cn(C)nc3OC)[nH]c3ncc4c(c23)n([C@H]2CC[C@@](C)(NC(=O)C3CC3)CC2)c(=O)n4C)cc1 [Example 1, N-((1s,4s)-4-(7-(3-Methoxy-1-methyl-1H-pyrazol-4-yl)-8-(4-methoxyphenyl)-3-methyl-2-oxo-3,6-dihydroimidazo[4,5-d]pyrrolo[2,3-b]pyridin-1(2H)-yl)-1-methylcyclohexyl)cyclopropanecarboxamide] | ****** (****** refers to selectivity of >12500-fold) | < 5.60 | ***** (***** refers to selectivity of >5000-fold to ≤12500-fold) | < 5.60 |
| [2H]C([2H])([2H])n1cc(-c2[nH]c3ncc4c(c3c2-c2ccc(OC)cc2)n([C@H]2CC[C@@](C)(NC(=O)[C@H]3C[C@H]3F)CC2)c(=O)n4C([2H])([2H])[2H])c(F)n1 [Example 6, (1R,2R)-2-Fluoro-N-((1s,4S)-4-(7-(3-fluoro-1-(methyl-d3)-1H-pyrazol-4-yl)-8-(4-methoxyphenyl)-3-(methyl-d3)-2-oxo-3,6-dihydroimidazo[4,5-d]pyrrolo[2,3-b]pyridin-1(2H)-yl)-1-methylcyclohexyl)cyclopropane-1-carboxamide] | ***** (***** refers to selectivity of >5000-fold to ≤12500-fold) | 5.90 to 6.60 | ** (** refers to selectivity of >500-fold to ≤1500-fold) | 6.60 to 7.60 |
